Reference: PMC5146859, “Phase 1/2 study of pacritinib, a next generation JAK2/FLT3 inhibitor, in myelofibrosis or other myeloid malignancies” (Journal of Hematology & Oncology, 2016)

Test system: patients with MF
Test: Phase 2 safety: adverse events, serious adverse events and deaths
Format: in vivo, human
Procedure: At screening/baseline, patients underwent a medical history, physical examination, vital sign assessment, ECOG PS assessment, electrocardiogram, and assessment of hematologic parameters and blood chemistry. Hematology/blood chemistry, physical examinations, and vital sign assessments were performed throughout treatment. Toxicity was assessed using the National Cancer Institute Common Terminology Criteria for Adverse Events (NCIC-CTCAE), version 3.0, with relationship to treatment assigned by the investigator and were recorded from the first dose of pacritinib until 30 days after the last dose. Bone marrow biopsy and/or aspirate samples were drawn at baseline, on day 1 of cycle 4 and cycle 10, as clinically indicated, and at the termination visit. Disease response and progression were determined using the relevant International Working Group (IWG) criteria.
The efficacy-evaluable population included those patients with a baseline and corresponding follow-up value. The safety population included all enrolled patients who received ≥1 dose of pacritinib.

## C1=C/COCc2cc(ccc2OCCN2CCCC2)Nc2nccc(n2)-c2cccc(c2)COC/1 [pacritinib, 11-(2-pyrrolidin-1-yl-ethoxy)-14,19-dioxa-5,7,26-triaza-tetracyclo[19.3.1.1(2,6). 1(8,12)]heptacosa-1(25),2(26),3,5,8,10,12(27),16,21,23-decaene]
Phase 2
  Relation of deaths to pacritinib: None of the deaths were considered related to pacritinib
  SAEs considered related to pacritinib: two
Phase 2, n = 31
  Gastrointestinal toxicities: reported by all patients
  Grade 3/4 AE: anemia: 5 n
  Grade 3/4 AE: bone pain: 4 n
  Grade 3/4 AE: diarrhea: 5 n
  Grade 3/4 AE: fatigue: 5 n
  Grade 3 or 4 thrombocytopenia: three
  Grade 3 treatment-related AEs: 22.6%
  Grade 4 treatment-related AEs: No grade 4/5 treatment-related AEs were reported
  Leukopenia, neutropenia, lymphopenia: No leukopenia, neutropenia, or lymphopenia was reported
  Patients who discontinued pacritinib because of an AE: 9.7%
  Patients with SAEs: 41.9%
  Patients with at least one grade 3/4 AE: 71.0%
  Patients with dose interruptions because of AEs: Fourteen
  Patients with dose reductions because of AEs: 14 patients
  Treatment-related AE: diarrhea: 90.3%
  Treatment-related AE: fatigue: 12.9%
  Treatment-related AE: nausea: 48.4%
  Treatment-related AE: vomiting: 29.0%
Phase 2, n = 31, Any grade
  Treatment-emergent AE: Abdominal pain: 9 (29.0) n (%)
  Treatment-emergent AE: Anemia: 6 (19.4) n (%)
  Treatment-emergent AE: Asthenia: 5 (16.1) n (%)
  Treatment-emergent AE: Bone pain: 6 (19.4) n (%)
  Treatment-emergent AE: Cardiac murmur: 4 (12.9) n (%)
  Treatment-emergent AE: Constipation: 5 (16.1) n (%)
  Treatment-emergent AE: Diarrhea: 28 (90.3) n (%)
  Treatment-emergent AE: Dyspnea: 5 (16.1) n (%)
  Treatment-emergent AE: Edema peripheral: 12 (38.7) n (%)
  Treatment-emergent AE: Fatigue: 18 (58.1) n (%)
  Treatment-emergent AE: Hyperuricemia: 4 (12.9) n (%)
  Treatment-emergent AE: Insomnia: 9 (29.0) n (%)
  Treatment-emergent AE: Nausea: 16 (51.6) n (%)
  Treatment-emergent AE: Night sweats: 7 (22.6) n (%)
  Treatment-emergent AE: Pain in extremity: 8 (25.8) n (%)
  Treatment-emergent AE: Pruritus: 9 (29.0) n (%)
  Treatment-emergent AE: Pyrexia: 4 (12.9) n (%)
  Treatment-emergent AE: Rash: 4 (12.9) n (%)
  Treatment-emergent AE: Upper respiratory tract infection: 4 (12.9) n (%)
  Treatment-emergent AE: Vomiting: 11 (35.5) n (%)
  Treatment-emergent AE: Weight decreased: 4 (12.9) n (%)
Phase 2, n = 31, Grade 1
  Treatment-emergent AE: Abdominal pain: 3 (9.7) n (%)
  Treatment-emergent AE: Anemia: 0 n (%)
  Treatment-emergent AE: Asthenia: 4 (12.9) n (%)
  Treatment-emergent AE: Bone pain: 1 (3.2) n (%)
  Treatment-emergent AE: Cardiac murmur: 0 n (%)
  Treatment-emergent AE: Constipation: 5 (16.1) n (%)
  Treatment-emergent AE: Diarrhea: 14 (45.2) n (%)
  Treatment-emergent AE: Dyspnea: 4 (12.9) n (%)
  Treatment-emergent AE: Edema peripheral: 6 (19.4) n (%)
  Treatment-emergent AE: Fatigue: 2 (6.5) n (%)
  Treatment-emergent AE: Hyperuricemia: 2 (6.5) n (%)
  Treatment-emergent AE: Insomnia: 7 (22.6) n (%)
  Treatment-emergent AE: Nausea: 9 (29.0) n (%)
  Treatment-emergent AE: Night sweats: 4 (12.9) n (%)
  Treatment-emergent AE: Pain in extremity: 5 (16.1) n (%)
  Treatment-emergent AE: Pruritus: 4 (12.9) n (%)
  Treatment-emergent AE: Pyrexia: 4 (12.9) n (%)
  Treatment-emergent AE: Rash: 2 (6.5) n (%)
  Treatment-emergent AE: Upper respiratory tract infection: 3 (9.7) n (%)
  Treatment-emergent AE: Vomiting: 7 (22.6) n (%)
  Treatment-emergent AE: Weight decreased: 4 (12.9) n (%)
Phase 2, n = 31, Grade 2
  Treatment-emergent AE: Abdominal pain: 3 (9.7) n (%)
  Treatment-emergent AE: Anemia: 1 (3.2) n (%)
  Treatment-emergent AE: Asthenia: 1 (3.2) n (%)
  Treatment-emergent AE: Bone pain: 1 (3.2) n (%)
  Treatment-emergent AE: Cardiac murmur: 4 (12.9) n (%)
  Treatment-emergent AE: Constipation: 0 n (%)
  Treatment-emergent AE: Diarrhea: 9 (29.0) n (%)
  Treatment-emergent AE: Dyspnea: 0 n (%)
  Treatment-emergent AE: Edema peripheral: 5 (16.1) n (%)
  Treatment-emergent AE: Fatigue: 11 (35.5) n (%)
  Treatment-emergent AE: Hyperuricemia: 0 n (%)
  Treatment-emergent AE: Insomnia: 2 (6.5) n (%)
  Treatment-emergent AE: Nausea: 6 (19.4) n (%)
  Treatment-emergent AE: Night sweats: 3 (9.7) n (%)
  Treatment-emergent AE: Pain in extremity: 2 (6.5) n (%)
  Treatment-emergent AE: Pruritus: 4 (12.9) n (%)
  Treatment-emergent AE: Pyrexia: 0 n (%)
  Treatment-emergent AE: Rash: 1 (3.2) n (%)
  Treatment-emergent AE: Upper respiratory tract infection: 1 (3.2) n (%)
  Treatment-emergent AE: Vomiting: 3 (9.7) n (%)
  Treatment-emergent AE: Weight decreased: 0 n (%)
Phase 2, n = 31, Grade 3
  Treatment-emergent AE: Abdominal pain: 3 (9.7) n (%)
  Treatment-emergent AE: Anemia: 3 (9.7) n (%)
  Treatment-emergent AE: Asthenia: 0 n (%)
  Treatment-emergent AE: Bone pain: 4 (12.9) n (%)
  Treatment-emergent AE: Cardiac murmur: 0 n (%)
  Treatment-emergent AE: Constipation: 0 n (%)
  Treatment-emergent AE: Diarrhea: 5 (16.1) n (%)
  Treatment-emergent AE: Dyspnea: 1 (3.2) n (%)
  Treatment-emergent AE: Edema peripheral: 1 (3.2) n (%)
  Treatment-emergent AE: Fatigue: 4 (12.9) n (%)
  Treatment-emergent AE: Hyperuricemia: 0 n (%)
  Treatment-emergent AE: Insomnia: 0 n (%)
  Treatment-emergent AE: Nausea: 1 (3.2) n (%)
  Treatment-emergent AE: Night sweats: 0 n (%)
  Treatment-emergent AE: Pain in extremity: 0 n (%)
  Treatment-emergent AE: Pruritus: 1 (3.2) n (%)
  Treatment-emergent AE: Pyrexia: 0 n (%)
  Treatment-emergent AE: Rash: 1 (3.2) n (%)
  Treatment-emergent AE: Upper respiratory tract infection: 0 n (%)
  Treatment-emergent AE: Vomiting: 1 (3.2) n (%)
  Treatment-emergent AE: Weight decreased: 0 n (%)
Phase 2, n = 31, Grade 4
  Treatment-emergent AE: Abdominal pain: 0 n (%)
  Treatment-emergent AE: Anemia: 2 (6.5) n (%)
  Treatment-emergent AE: Asthenia: 0 n (%)
  Treatment-emergent AE: Bone pain: 0 n (%)
  Treatment-emergent AE: Cardiac murmur: 0 n (%)
  Treatment-emergent AE: Constipation: 0 n (%)
  Treatment-emergent AE: Diarrhea: 0 n (%)
  Treatment-emergent AE: Dyspnea: 0 n (%)
  Treatment-emergent AE: Edema peripheral: 0 n (%)
  Treatment-emergent AE: Fatigue: 1 (3.2) n (%)
  Treatment-emergent AE: Hyperuricemia: 2 (6.5) n (%)
  Treatment-emergent AE: Insomnia: 0 n (%)
  Treatment-emergent AE: Nausea: 0 n (%)
  Treatment-emergent AE: Night sweats: 0 n (%)
  Treatment-emergent AE: Pain in extremity: 1 (3.2) n (%)
  Treatment-emergent AE: Pruritus: 0 n (%)
  Treatment-emergent AE: Pyrexia: 0 n (%)
  Treatment-emergent AE: Rash: 0 n (%)
  Treatment-emergent AE: Upper respiratory tract infection: 0 n (%)
  Treatment-emergent AE: Vomiting: 0 n (%)
  Treatment-emergent AE: Weight decreased: 0 n (%)
Phase 2, of 33 enrolled
  Patients who died: 27.3%
